Data as given in patent US20230117034A1, “PYRAZOLOTRIAZINES” (Bayer Aktiengesellschaft, priority 2019, published 2023).

Experiments:
[1] = tested on: CAL-120, human breast adenocarcinoma cells; experiment: Proliferation assay CAL-120 (crystal violet, 4 days); format: cell-based; settings: Homo sapiens, CAL-120, 96 h, CAL-120 cells, median, read-out: Prolif-CAL-120, IC50-[mol/l] (median)
Procedure: (§1) Human tumour cells were originally obtained from the American Type Culture Collection (ATCC), or from the Deutsche Sammlung von Mikroorganismen und Zellkulturen (DSMZ, German Collection of Microorganisms and Cell Cultures). Cultivated tumour cells (CAL-120, human breast adenocarcinoma cells, DSMZ ACC-459; MDA-MB-231, human breast cancer cells, ATCC HTB-26) were plated at a density of 4,000 cells/well in a 96-well multititer plate in 200 microL of their respective growth medium supplemented 10% fetal calf serum. After 24 hours, the cells of one plate (zero-point plate) were stained with crystal violet (see below), while the medium of the other plates was supplemented with the test substances in various concentrations (0 micromol/L, as well as in the range of 0.01-10 micromol/L; the final concentration of the solvent dimethyl sulfoxide was adjusted to 0.1%) using a Tecan HP D300 Digital Dispenser. The cells were incubated for 4 days in the presence of test substances. Cell proliferation was determined by staining the cells with crystal violet: the cells were fixed by adding 20 microL/measuring point of an 11% glutaric aldehyde solution for 15 minutes at room temperature. After three washing cycles of the fixed cells with water, the plates were dried at room temperature. The cells were stained by adding 100 microL/measuring point of a 0.1% crystal violet solution (pH 3.0). After three washing cycles of the stained cells with water, the plates were dried at room temperature. The dye was dissolved by adding 100 microL/measuring point of a 10% acetic acid solution. The extinction was determined by photometry at a wavelength of 595 nm. The change of cell number, in percent, was calculated by normalization of the measured values to the extinction values of the zero-point plate (=0%) and the extinction of the untreated (0 μM) cells (=100%). The IC50 values (inhibitory concentration at 50% of maximal effect) were determined by means of a 4 parameter fit.

[2] = tested on: MDA-MB-231, human breast cancer cells; experiment: Proliferation assay MDA-MB-231 (crystal violet, 4 days); format: cell-based; settings: Homo sapiens, MDA-MB-231, 96 h, MDA-MB-231 cells, median, read-out: Prolif-MDA MB-231, IC50-[mol/l] (median)
Procedure: as §1

[3] = tested on: BRCA1 mRNA expression in MDA-MB-231 cells; experiment: qRT-PCR assay: BRCA1 mRNA expression in MDA-MB-231; format: cell-based, human; settings: Homo sapiens, MDA-MB-231, Inhibition of BRCA1 mRNA expression in MDA-MB-231 cells; median; read-out: RTqPCR-MDA-MB-231, IC50, BRCA1 (median)
Procedure: 3. qRT-PCR Assay: BRCA, ATR, MCL1 in MDA-MB-231, CAL-120
Tissue cultured human MDA-MB-231 human breast cancer cells were plated in 500 microL per well at 200,000 cells/well in a 24 well microtiter plate. After 24 h, the cells were exposed continuously for 24 h to test substances (substances were added with Tecan HP 0300 Dispenser). RNA was prepared using Qiagen RNeasy MiniKit (#74106), RNA was quantified using a NanoDrop Equipment, and 600 nano gamms of RNA was coverted to cDNA using a SuperScript VILO kit (Thermofisher #11755050) followed by qPCR amplification. BRCA1 and ATR gene expression was measured by RT-qPCR and normalised to GAPDH housekeeping gene expression. qPCR primer sets have been purchased from Thermo Fisher Scientific/Applied Biosystems: BRCA1, #Hs 01556193; ATR, #Hs 00992123; GAPDH, #Hs 03929097.

Row | SMILES | IC50 [1] [µM] | IC50 [2] [µM] | IC50 [3] [µM]
1 | O=S1(=O)CCN(c2nc(NCc3nc4ccccc4[nH]3)n3ncc(Br)c3n2)CC1 [Example 166, 4-(4-{[(1H-benzimidazol-2-yl)methyl]amino}-8-bromopyrazolo[1,5-a][1,3,5]triazin-2-yl)-1 lambda^6-thiomorpholine-1,1-dione] | 0.0201 | 0.164 | 0.0462
2 | CC1(C)CN(c2nc(NCc3nnc(-c4ccccc4)[nH]3)n3ncc(C4CC4)c3n2)CCO1 [Example 94, 8-cyclopropyl-2-(2,2-dimethylmorpholin-4-yl)-N-[(5-phenyl-4H-1,2,4-triazol-3-yl)methyl]pyrazolo[1,5-a][1,3,5]triazin-4-amine] | 0.177 |  | 0.222
3 | C[C@@H]1CCCCN1c1nc(NCc2nc3ccccc3[nH]2)n2ncc(Br)c2n1 [Example 140, N-[(1H-benzimidazol-2-yl)methyl]-8-bromo-2-[(2R)-2-methylpiperidin-1-yl]pyrazolo[1,5-a][1,3,5]triazin-4-amine] | 0.255 | 0.315 | 
4 | CC(C)c1cnn2c(NCc3nc4ccccc4[nH]3)nc(N3CC4(COC4)C3)nc12 [Example 9, N-[(1H-benzimidazol-2-yl)methyl]-2-(2-oxa-6-azaspiro[3.3]heptan-6-yl)-8-(propan-2-yl)pyrazolo[1,5-a][1,3,5]triazin-4-amine] |  | 1.18 | 0.255
5 | Brc1cnn2c(NCc3nc4ccccc4[nH]3)nc(N3CCN(C4CC4)CC3)nc12 [Example 138, N-[(1H-benzimidazol-2-yl)methyl]-8-bromo-2-(4-cyclopropylpiperazin-1-yl)pyrazolo[1,5-a][1,3,5]triazin-4-amine] | 0.451 | 0.556 | 
6 | Brc1cnn2c(NCc3nc4ccccc4[nH]3)nc(N3CCN4CCC[C@@H]4C3)nc12 [Example 149, N-[(1H-benzimidazol-2-yl)methyl]-8-bromo-2-[(8aR)-hexahydropyrrolo[1,2-a]pyrazin-2 (1 H)-yl]pyrazolo[1,5-a][1,3,5]triazin-4-amine] | 0.164 | 0.276 | 0.148
7 | CC(C)c1cnn2c(NCc3nc4ccccc4[nH]3)nc(N3CCOC[C@H]3C)nc12 [Example 7, N-[(1H-benzimidazol-2-yl)methyl]-2-[(3R)-3-methylmorpholin-4-yl]-8-(propan-2-yl)pyrazolo[1,5-a][1,3,5]triazin-4-amine] |  |  | 0.203
8 | [O-][S+]1CCN(c2nc(NCc3nc4ccccc4[nH]3)n3ncc(Br)c3n2)CC1 [Example 144, 4-(4-{[(1H-benzimidazol-2-yl)methyl]amino}-8-bromopyrazolo[1,5-a][1,3,5]triazin-2-yl)-1lambda^4-thiomorpholin-1-one] | 0.11 | 0.185 | 0.0833
9 | Clc1cccc(-c2cnn3c(NCc4nc5ccccc5[nH]4)nc(N4CCOCC4)nc23)c1 [Example 107, N-[(1H-benzimidazol-2-yl)methyl]-8-(3-chlorophenyl)-2-(morpholin-4-yl)pyrazolo[1,5-a][1,3,5]triazin-4-amine] | 0.188 |  | 0.151
10 | CN1CCN(c2nc(NCc3nc4ccccc4[nH]3)n3ncc(Br)c3n2)C(CO)C1 (centres unmarked) [Example 155, [1-[4-(1H-benzimidazol-2-ylmethylamino)-8-bromo-pyrazolo[1,5-a][1,3,5]triazin-2-yl]-4-methyl-piperazin-2-yl]methanol] | 0.0753 | 0.174 | 
11 | N=S1(=O)CCN(c2nc(NCc3nc4ccccc4[nH]3)n3ncc(Br)c3n2)CC1 [Example 145, 4-(4-{[(1H-benzimidazol-2-yl)methyl]amino}-8-bromopyrazolo[1,5-a][1,3,5]triazin-2-yl)-1-imino-1lambda^6-thiomorpholin-1-one] | 0.223 | 1.62 | 0.19
12 | Brc1cnn2c(NCc3nc4ccccc4[nH]3)nc(N3CCC3)nc12 [Example 143, 2-(azetidin-1-yl)-N-[(1H-benzimidazol-2-yl)methyl]-8-bromopyrazolo[1,5-a][1,3,5]triazin-4-amine] | 0.306 | 0.827 | 
13 | FC(F)(F)CN1CCN(c2nc(NCc3nc4ccccc4[nH]3)n3ncc(Br)c3n2)CC1 [Example 139, N-[(1H-benzimidazol-2-yl)methyl]-8-bromo-2-[4-(2,2,2-trifluoroethyl)piperazin-1-yl]pyrazolo[1,5-a][1,3,5]triazin-4-amine] | 0.446 | 0.539 | 
14 | Fc1ccccc1-c1cnn2c(NCc3nc4ccccc4[nH]3)nc(N3CCOCC3)nc12 [Example 95, N-[(1H-benzimidazol-2-yl)methyl]-8-(2-fluorophenyl)-2-(morpholin-4-yl)pyrazolo[1,5-a][1,3,5]triazin-4-amine] | 0.23 |  | 0.147
15 | OCC1CCN1c1nc(NCc2nc3ccccc3[nH]2)n2ncc(Br)c2n1 (centres unmarked) [Example 147, [1-[4-(1H-benzimidazol-2-ylmethylamino)-8-bromo-pyrazolo[1,5-a][1,3,5]triazin-2-yl]azetidin-2-yl]methanol] | 0.31 | 0.317 | 0.0767
16 | CN1CCN(c2nc(NCc3nnc(-c4ccccc4)[nH]3)n3ncc(Br)c3n2)CC1=O [Example 121, 4-(8-bromo-4-{[(5-phenyl-4H-1,2,4-triazol-3-yl)methyl]amino}pyrazolo[1,5-a][1,3,5]triazin-2-yl)-1-methylpiperazin-2-one] | 0.404 |  | 0.344
17 | CN1CCN(c2nc(NCc3nc4ccccc4[nH]3)n3ncc(Br)c3n2)CC1=O [Example 131, 4-(4-{[(1H-benzimidazol-2-yl)methyl]amino}-8-bromopyrazolo[1,5-a][1,3,5]triazin-2-yl)-1-methylpiperazin-2-one] | 0.595 | 0.682 | 
18 | NCCc1ccc2[nH]c(CNc3nc(N4CCOCC4)nc4c(Br)cnn34)nc2c1.O=CO [Example 113, formic acid-N-{[5-(2-aminoethyl)-1H-benzimidazol-2-yl]methyl}-8-bromo-2-(morpholin-4-yl)pyrazolo[1,5-a][1,3,5]triazin-4-amine (1/1)] |  |  | 0.0211
19 | c1ccc(-c2cnn3c(NCc4nc5ccccc5[nH]4)nc(N4CCOCC4)nc23)cc1 [Example 104, N-[(1H-benzimidazol-2-yl)methyl]-2-(morpholin-4-yl)-8-phenylpyrazolo[1,5-a][1,3,5]triazin-4-amine] | 0.127 |  | 0.03
